In the oligonucleotide strings, read from the 5' end, every base follows the letter of its sugar. An asterisk marks phosphorothioate; unmarked linkages are phosphodiester. Other units and linkages are bracketed, terminal groups are in braces. A string of capitals states the bases alone. [Ab] = 3'-terminal abasic nucleotide; e = 2'-O-(2-methoxyethyl) (MOE); d = 2'-deoxy (DNA); m = 2'-O-methyl; r = 2'-OH (RNA); {P} = phosphate; f = 2'-fluoro
Tested on: PCSK9 mRNA
Experiment: In vitro screening of modified dsRNAs targeted to PCSK9 (Table 2b; cell type not given)
Assay type: cell-based
Conditions: 30 nM siRNA
Description: For transfection with siRNA, HuH7, HepG2, or HeLa cells were seeded at a density of 2.0×10^4 cells/well in 96-well plates and transfected directly. Transfection of siRNA (30 nM for single dose screen) was carried out with lipofectamine 2000 (Invitrogen GmbH, Karlsruhe, Germany, cat. No. 11668-019) as described by the manufacturer.
24 hours after transfection HuH7 and HepG2 cells were lysed and PCSK9 mRNA levels were quantified with the Quantigene Explore Kit (Genosprectra, Dumbarton Circle Fremont, USA, cat. No. QG-000-02) according to the protocol. PCSK9 mRNA levels were normalized to GAP-DH mRNA. For each siRNA eight individual datapoints were collected. siRNA duplexes unrelated to PCSK9 gene were used as control. The activity of a given PCSK9 specific siRNA duplex was expressed as percent PCSK9 mRNA concentration in treated cells relative to PCSK9 mRNA concentration in cells treated with the control siRNA duplex.
Tables 1b and 2b (and FIG. 6A) summarize the results and provide examples of in vitro screens in different cell lines at different doses. Silencing of PCSK9 transcript was expressed as percentage of remaining transcript at a given dose.

Going from “AD-12370: modified dsRNA, SEQ ID NO:1437/1438 (chain 1 GCCUGGAGUUUAUUCGGAATT; chain 2 {P}-fUfUfCfCrGrArAfUrArArAfCfUfCfCrArGrGfCdT*dT; chain 1: DNA at T, 2'-MOE at CU, RNA at AG, linkages o19 s1 (s phosphorothioate, o phosphodiester), methylation of C not given here)” to “AD-12361: modified dsRNA, SEQ ID NO:1419/1420 (chain 1 GCCUGGAGUUUAUUCGGAA; chain 2 rUrUrCrCrGrArAmUrArArArCrUrCmCrArGrGrCdT*dT; chain 1: sugars from the 5' end rererererererererer, all phosphodiester, methylation of C and T or U not given here)”, the “Remaining mRNA in % of controls at siRNA conc. of 30 nM” value (“Remaining mRNA in % of controls” for short) falls from 68% to 20%.

First: AD-12047: modified dsRNA, SEQ ID NO:1329/1330 (chain 1 rGmCmCmUrGrGrArGmUmUmUrAmUmUmCrGrGrArArA; chain 2 rUrUrUrCrCrGrArArUrArArArCrUrCrCrArGrGrC*mC*mU)
Second: AD-12355: modified dsRNA, SEQ ID NO:1407/1408 (chain 1 fGmCfCmUfGmGfAmGfUmUfUmAfUmUfCmGfGmAfA; chain 2 rUrUrCrCrGrArAmUrArArArCrUrCmCrArGrGrCdT*dT)
The “Remaining mRNA in % of controls” value of the first is higher: 17% for the first, 9% for the second.

First: AD-12369: modified dsRNA, SEQ ID NO:1435/1436 (chain 1 GCCUGGAGUUUAUUCGGAATT; chain 2 rUrUrCrCrGrArArUrArArArCrUrCrCrArGrGrCdT*dT; chain 1: DNA at T, 2'-MOE at CU, RNA at AG, linkages o19 s1 (s phosphorothioate, o phosphodiester), methylation of C and T or U not given here)
Second: AD-12065: modified dsRNA, SEQ ID NO:1365/1366 (chain 1 rGmCrCmUrGmGrAmGrUmUrUmArUmUrCmGrGmArAdTdT[Ab]; chain 2 rUrUrCrCrGrArAmUrArArArCrUrCmCrArGrGrCdTdT[Ab])
The “Remaining mRNA in % of controls” value of the first is higher: 26% for the first, 16% for the second.

Compared with “AD-12389: modified dsRNA, SEQ ID NO:1473/1474 (chain 1 rGfCfCfUrGrGrArGrGfUfUfUrAfUfUfCrGrGrArA; chain 2 {P}-mUfUmCfCmGfAmAfUmAfAmAfCmUfCmCfAmGfGmC*fC*mU)”, “AD-12041: modified dsRNA, SEQ ID NO:1317/1318 (chain 1 rGmCmCmUrGrGrArGmUmUmUrAmUmUmCrGrGrArAdT*dT; chain 2 rUrUrCmCrGrArArUrArArArCrUrCrCrArGrGrCdT*dT)” is lower in “Remaining mRNA in % of controls” value: 16% for the first, 11% for the second.

Going from “AD-12359: modified dsRNA, SEQ ID NO:1415/1416 (chain 1 GCCUGGAGUUUAUUCGGAA; chain 2 {P}-mUfUmCfCmGfAmAfUmAfAmAfCmUfCmCfAmGfGmC*fC*mU; chain 1: sugars from the 5' end rererererererererer, all phosphodiester, methylation of C and T or U not given here)” to “AD-12060: modified dsRNA, SEQ ID NO:1355/1356 (chain 1 rGmCrCmUrGmGrAmGrUmUrUmArUmUrCmGrGmArA; chain 2 rUrUrCrCrGmAmArUrAmAmArCrUrCrCrAmGmGmC)”, the “Remaining mRNA in % of controls” value falls from 30% to 10%.

Going from “AD-12069: modified dsRNA, SEQ ID NO:1373/1374 (chain 1 rGmCrCmUrGmGrAmGrUmUrUmArUmUrCmGrGmArA; chain 2 rUrUrCrCrGrArArUrArArArCrUrCrCrArGrGrC*mC*mU)” to “AD-12053: modified dsRNA, SEQ ID NO:1341/1342 (chain 1 rGmCmCmUrGrGrArGmUmUmUrAmUmUmCrGrGrArArArArGdTdT[Ab]; chain 2 rCrUrUrUrUrCrCrGrArArUrArArArCrUrCrCrArGrGrCdTdT[Ab])”, the “Remaining mRNA in % of controls” value rises from 13% to 46%.

First: AD-12044: modified dsRNA, SEQ ID NO:1323/1324 (chain 1 rGrCrCrUrGrGrArGrUrUrUrArUrUrCrGrGrArAdT*dT; chain 2 rUrUmCrCrGrArArUrArArArCrUrCrCrArGrGrCdT*dT)
Second: AD-12392: modified dsRNA, SEQ ID NO:1479/1480 (chain 1 rGfCfCfUrGrGrArGrGfUfUfUrAfUfUfCrGrGrArA; chain 2 rUrUrCrCrGrArArUrArArArCrUrCrCrArGrGrCdT*dT)
The “Remaining mRNA in % of controls” value of the first is lower: 7% for the first, 28% for the second.

Compared with “AD-12401: modified dsRNA, SEQ ID NO:1497/1498 (chain 1 rGmCmCmUrGrGrArGmUmUmUrAmUmUmCrGrGrArAdT*dT; chain 2 {P}-fUfUfCfCrGrArAfUrArArAfCfUfCfCrArGrGfC*fC*fU)”, “AD-12351: modified dsRNA, SEQ ID NO:1401/1402 (chain 1 fGmCfCmUfGmGfAmGfUmUfUmAfUmUfCmGfGmAfA; chain 2 {P}-mUfUmCfCmGfAmAfUmAfAmAfCmUfCmCfAmGfGmC*fC*mU)” is lower in “Remaining mRNA in % of controls” value: 13% for the first, 11% for the second.

Going from “AD-12358: modified dsRNA, SEQ ID NO:1413/1414 (chain 1 GCCUGGAGUUUAUUCGGAA; chain 2 {P}-mUfUmCfCmGfAmAfUmAfAmAfCmUfCmCfAmGfGmC; chain 1: sugars from the 5' end rererererererererer, all phosphodiester, methylation of C and T or U not given here)” to “AD-12067: modified dsRNA, SEQ ID NO:1369/1370 (chain 1 GCCUGGNAGUUUAUUCGGAATT; chain 2 rUrUrCrCrGrArArUrArArArCrUrCrCrArGrGrCdT*dT; chain 1: chemistry not given here)”, the “Remaining mRNA in % of controls” value falls from 29% to 17%.

Compared with “AD-12352: modified dsRNA, SEQ ID NO:1403/1404 (chain 1 fGmCfCmUfGmGfAmGfUmUfUmAfUmUfCmGfGmAfA; chain 2 rUrUrCrCrGmAmArUrAmAmArCrUrCrCrAmGmGmC*mC*mU)”, “AD-12364: modified dsRNA, SEQ ID NO:1425/1426 (chain 1 GCCUGGAGUUUAUUCGGAATT; chain 2 rUrUrCrCrGmAmArUrAmAmArCrUrCrCrAmGmGmCdT*dT; chain 1: sugars from the 5' end rerererererererererdd, linkages o19 s1 (s phosphorothioate, o phosphodiester), methylation of C and T or U not given here)” is higher in “Remaining mRNA in % of controls” value: 11% for the first, 25% for the second.

Compared with “AD-12395: modified dsRNA, SEQ ID NO:1485/1486 (chain 1 GCCUGGAGUUUAUUCGGAATT; chain 2 {P}-fUfUfCfCrGrArAfUrArArAfCfUfCfCrArGrGfC*fC*fU; chain 1: sugars from the 5' end rerererererererererdd, linkages o19 s1 (s phosphorothioate, o phosphodiester), methylation of C not given here)”, “AD-12365: modified dsRNA, SEQ ID NO:1427/1428 (chain 1 GCCUGGAGUUUAUUCGGAATT; chain 2 rUrUrCrCrGrArAmUrArArArCrUrCmCrArGrGrCdT*dT; chain 1: sugars from the 5' end rerererererererererdd, linkages o19 s1 (s phosphorothioate, o phosphodiester), methylation of C and T or U not given here)” is lower in “Remaining mRNA in % of controls” value: 55% for the first, 18% for the second.

Compared with “AD-12403: modified dsRNA, SEQ ID NO:1501/1502 (chain 1 rGfCfCfUrGrGrArGrGfUfUfUrAfUfUfCrGrGrArA; chain 2 {P}-fUfUfCfCrGrArAfUrArArAfCfUfCfCrArGrGfC*fC*fU)”, “AD-12066: modified dsRNA, SEQ ID NO:1367/1368 (chain 1 rGmCrCmUrGmGrAmGrUmUrUmArUmUrCmGrGmArA; chain 2 rUrUrCrCrGrArAmUrArArArCrUrCmCrArGrGrC*mC*mU)” is higher in “Remaining mRNA in % of controls” value: 4% for the first, 20% for the second.

First: AD-12055: modified dsRNA, SEQ ID NO:1345/1346 (chain 1 rGmCmCmUrGrGrArGmUmUmUrAmUmUmCrGrGrArAdT*dT; chain 2 rUrUrCrCrGrArArUrArArArCrUrCrCrArGrGrC*mC*mU)
Second: AD-12349: modified dsRNA, SEQ ID NO:1397/1398 (chain 1 GCCUGGNAGUUUAUUCGGAATT; chain 2 {P}-mUfUmCfCmGfAmAfUmAfAmAfCmUfCmCfAmGfGmCdT*dT; chain 1: chemistry not given here; further chemistry not fully specified)
The “Remaining mRNA in % of controls” value of the first is higher: 13% for the first, 11% for the second.

“AD-12342: modified dsRNA, SEQ ID NO:1383/1384 (chain 1 fGmCfCmUfGmGfAmGfUmUfUmAfUmUfCmGfGmAfAdT*dT; chain 2 rUrUrCrCrGrArAmUrArArArCrUrCmCrArGrGrCdT*dT)” was tested, and the “Remaining mRNA in % of controls” value was 13%.

Same assay, conditions: data not shown; test system not given

With “AD-3511: a derivative of AD-10792; sense SEQ ID NO: 1521, antisense SEQ ID NO: 1522 (sense rGmCmCmUrGrGrArGmUmUmUrAmUmUmCrGrGrArAdT*dT; antisense {P}-mUrUrCrCrGrArAmUrArArArCrUrCmCrArGrGrCdT*dT; further chemistry not fully specified)” the IC50 was 70 to 200 pM.

— patent US20120016009A1, “Optimized Methods For Delivery Of DSRNA Targeting The PCSK9 Gene” (priority 2008, published 2012)
